From US20050031661A1, “Attractants for moths” (priority 2003, published 2005)

Tests used:
[1] = test system: corn earworm moths; experiment: Single component floral lures, 2000 field season (Example 3); assay type: in vivo, Helicoverpa zea; details: Universal Moth Traps baited with individual floral chemicals from polypropylene vials
From the text: (§1) Materials and Methods. The Universal Moth Trap (Great Lakes IPM, Vestaburg, Mich.) was used in all tests, with a 6 cm^2 piece of Vaportape® (Hercon Environmental Inc., Emigsville, Pa.) in each trap bucket to kill captured moths. The trap is an opaque white bucket with a yellow cone and green lid. Traps were hung from stakes in the weedy borders around irrigated fields in the vicinity of sweet corn and alfalfa, near Mattawa, Grant County, Wash. Traps were placed 12 meters apart in a north to south orientation, because of prevailing westerly winds.
(§2) A randomized complete block design was used, and treatments (trap lures) were randomized each time that traps were checked. Traps were checked twice per week, and insects were placed in pre-labeled plastic bags for transport to the laboratory where they were stored in a freezer until processed. Moths were sorted by sex and identified to species with the aid of a dissecting microscope.
(§3) Unless reported otherwise, polypropylene vials (8 ml) were used as dispensers for release of chemicals tested following the methods of Landolt et al., 2001, supra. Chemicals (5 ml) were pipetted onto cotton in the bottom of the vial. Holes made in the lids (3 mm diameter) permitted the escape of volatilized chemicals from the vials. Vials were suspended with wire near the bottom of the inside of the bucket of the trap. When more than one chemical was used to bait a trap, a separate vial was used for each chemical. Dispensers were replaced every 2 weeks when experiments lasted longer than two weeks.
During the 2000 field season, seven floral compounds were evaluated for attractiveness to corn earworm moths, testing them as lures in traps. These compounds were phenylacetaldehyde, benzyl alcohol, benzyl aldehyde, benzyl acetate, cis jasmone, linalool and phenethyl alcohol. A randomized complete block design was used, with 5 replicate blocks set up. Each block included an unbaited trap as a control.
(§4) Trap catch data were subjected to an ANOVA and treatment means were separated using Tukey's test, following a significant F value in the ANOVA.

[2] = test system: corn earworm moths; experiment: Double component Test 7, linalool, benzyl aldehyde, phenethyl alcohol combinations; assay type: in vivo, Helicoverpa zea; details: single and double component combinations dispensed from vials
From the text: as §1, §2, §3
Seven double component tests were conducted. For each two-component combinations, two vials were placed in the bucket of the trap; one vial containing phenylacetaldehyde and the other vial containing the second chemical (excepting the use of septa as dispensers for the third double component test that involved terpenes. Five replicate blocks, each including one of each of the different two-chemical combinations as well as phenylacetaldehyde alone, were set up and were maintained for two weeks.
Test 7. The combinations of linalool plus benzyl aldehyde, phenethyl alcohol plus benzaldehyde, and phenethyl alcohol plus linalool were compared to phenylacetaldehyde alone, linalool alone, benzyl aldehyde alone and phenethyl alcohol alone.
as §4

[3] = test system: alfalfa looper moth; details: Landolt et al., 2001; cited from earlier work
[4] = test system: alfalfa looper moths; experiment: Double component blends, benzyl acetate plus, trap captures; assay type: in vivo, Autographa californica; details: Universal moth traps; benzyl acetate (BA) alone, PAA alone, or BA plus second chemical in separate vials
From the text: (§5) Materials and Methods. A multi-colored version of the Universal Moth Trap, or UniTrap® (AgriSense, sold by Great Lakes IPM, Vestaburg, Mich.), was used in all experiments. The trap is an opaque white bucket beneath a yellow cone and a green lid. A 2.5×2.5 cm piece of Vaportape® (Hercon Environmental, Emigsville, Pa.) was placed in each trap bucket as a killing agent. Traps were hung from stakes at a height of about one meter in uncultivated areas adjacent to fields of alfalfa or directly within alfalfa fields. Traps were placed 12 meters apart in a north to south orientation, because of prevailing westerly winds.
(§6) For all experiments, a randomized complete block design was used, and treatments were randomized each time traps were checked. Traps were checked twice per week, at which time all insects in the traps were placed in pre-labeled plastic bags for transport to the laboratory. Moths were identified and sorted by sex under a dissecting microscope.
Polypropylene vials (8 ml) were used as dispensers for release of chemicals tested, following the methods used in Landolt et al., 2001, supra. Chemicals (5 ml) were pipetted onto cotton in the bottom of the vial. Holes made in vial lids (3 mm diameter) permitted the escape of volatilized chemicals. Vials were suspended with wire near the bottom of the inside of the bucket of the UniTrap®. […]

[5] = test system: corn earworm moths; experiment: Double component Test 6, combinations with benzyl alcohol; assay type: in vivo, Helicoverpa zea; details: single and double component combinations dispensed from vials
From the text: as §1, §2
Unless reported otherwise, polypropylene vials (8 ml) were used as dispensers for release of chemicals tested following the methods of Landolt et al., 2001, supra. Chemicals (5 ml) were pipetted onto cotton in the bottom of the vial. Holes made in the lids (3 mm diameter) permitted the escape of volatilized chemicals from the vials. Vials were suspended with wire near the bottom of the inside of the bucket of the trap. […]

[6] = test system: alfalfa looper moths; experiment: Single component floral lures, Universal moth trap captures (Example 2); assay type: in vivo, Autographa californica; details: Universal moth traps baited with individual floral chemicals dispensed from polypropylene vials (5 ml, 3 mm hole)
From the text: as §5, §6
(§7) β-Pinene, (R)-(+)-α-pinene, (S)-(−)-limonene, β-myrcene, phenylacetaldehyde, methyl salicylate, and methyl-2-methoxybenzoate were purchased from Aldrich Chemical Co. (Milwaukee, Wis.). (R)-(+)-limonene was purchased from Acros Chemical Co. (Milwaukee, Wis.).
(§8) Polypropylene vials (8 ml) were used as dispensers for release of chemicals tested, following the methods used in Landolt et al., 2001, supra. Chemicals (5 ml) were pipetted onto cotton in the bottom of the vial. Holes made in vial lids (3 mm diameter) permitted the escape of volatilized chemicals. Vials were suspended with wire near the bottom of the inside of the bucket of the UniTrap®. When more than one chemical was used to bait a trap, a separate vial was used for each chemical. Dispensers were replaced after two weeks when experiments lasted longer than two weeks.
(§9) A comparison was made of moth captures in traps baited with seven different chemicals that are emitted by flowers. These chemicals were phenylacetaldehyde, (included as a positive control and standard for comparison), methyl salicylate, racemic limonene, methyl-2-methoxybenzoate, (R)-(+)-α-pinene, (S)-(−)-β-pinene, and β-myrcene. Five replicate blocks, each including these seven chemical treatments and an unbaited trap, were set up on 18 May 2001 and were maintained until 1 Jun. 2001. The study was conducted at an experimental farm about 20 km east of the town of Moxee, in Yakima County, Wash. The same study was conducted again 3-27 July 2001 near Mattawa, Grant County, Wash., in order to take advantage of cabbage looper populations that became apparent in mid summer.
as §4

[7] = test system: cabbage looper moths; experiment: as above; assay type: in vivo, Trichoplusia ni; details: Universal moth traps baited with individual floral chemicals dispensed from polypropylene vials (5 ml, 3 mm hole)
From the text: as §5, §6, §7, §8, §9, §4

[8] = test system: corn earworm moths; experiment: Single component floral lures, 2001 field season (Example 3); assay type: in vivo, Helicoverpa zea; details: Universal Moth Traps baited with individual floral chemicals from polypropylene vials
From the text: as §1, §2
β-Pinene, R-(+)-alpha-pinene, (S)-(−)-limonene, β-myrcene, phenylacetaldehyde, methyl salicylate, and methyl-2-methoxybenzoate were purchased from Aldrich Chemical Inc. (Milwaukee, Wis.). (R)-(+)-limonene was purchased from Acros Chemical Co. (Milwaukee, Wis.).
as §3
A second comparison of floral compounds was made in the 2001 field season, for attractiveness to corn earworm moths. These chemicals were phenylacetaldehyde, methyl salicylate, racemic limonene, methyl-2-methoxybenzoate, […], (S)-beta pinene, and β-myrcene. Five replicate blocks, each including these seven chemical treatments and an unbaited trap as a control, were set up on 3 Jul. 2001 and were maintained until 27 Jul. 2001.
as §4

[9] = test system: corn earworm moths; details: Cantelo and Jacobson, 1979b; cited from earlier work

For O=Cc1ccccc1 [Benzyl aldehyde, benzyl aldehyde], the “Mean (±SE) numbers of corn earworm moths captured” value [1] is given as 0.05 ± 0.05a, the “Mean (±SE) numbers of corn earworm moths captured” value [2] is given as 0.05 ± 0.05a and the “Attraction of alfalfa looper moths (capture in baited traps)” value (shortened to “Attraction of alfalfa looper moths”) [3] is given as “not attracted”.

For OCCc1ccccc1 [Phenethyl alcohol, phenethyl alcohol], the “Mean (±SE) numbers of corn earworm moths captured” value [1] is given as 0.00 ± 0.00, the “Mean (±SE) numbers of corn earworm moths captured” value [2] is given as 0.05 ± 0.05a and the “Attraction of alfalfa looper moths” value [3] is given as “not attracted”.

In the case of CC(=O)OCc1ccccc1 [benzyl acetate], the “Mean (±SE) numbers of alfalfa looper moths captured” value [4] is listed as 0.37 ± 0.12c, the “Mean (±SE) numbers of corn earworm moths captured” value [1] is listed as 0.00 ± 0.00 and the “Attraction of alfalfa looper moths” value [3] is listed as “attracted”.

In the case of OCc1ccccc1 [benzyl alcohol], the “Mean (±SE) numbers of corn earworm moths captured” value [1] is given as 0.15 ± 0.08a, the “Mean (±SE) numbers of corn earworm moths captured” value [5] is given as 0.10 ± 0.07a and the “Attraction of alfalfa looper moths” value [3] is given as “not attracted”.

In the case of CC/C=C\CC1=C(C)CCC1=O [cis-jasmone], the “Mean (±SE) numbers of corn earworm moths captured” value [1] is listed as 0.00 ± 0.00 and the “Attraction of alfalfa looper moths” value [3] is listed as “not attracted”.

For C=C(C)[C@H]1CC=C(C)CC1 [limonene], the “Mean (±SE) numbers of alfalfa looper moths captured” value [6] was 0.0 ± 0.0a, the “Mean (±SE) numbers of cabbage looper moths captured” value [7] was 0.0 ± 0.0a and the “Mean (±SE) numbers of corn earworm moths captured” value [8] was 0.05 ± 0.05a.

In the case of C=CC(C)(O)CCC=C(C)C (centres unmarked) [linalool], the “Mean (±SE) numbers of corn earworm moths captured” value [1] is given as 0.00 ± 0.00, the “Mean (±SE) numbers of corn earworm moths captured” value [2] is given as 0.00 ± 0.00a and the “Attraction of alfalfa looper moths” value [3] is given as “not attracted”.

In the case of COC(=O)c1ccccc1O [methyl salicylate], the “Mean (±SE) numbers of alfalfa looper moths captured” value [6] is reported as 0.1 ± 0.0a, the “Mean (±SE) numbers of cabbage looper moths captured” value [7] is reported as 0.1 ± 0.1a and the “Mean (±SE) numbers of corn earworm moths captured” value [8] is reported as 0.10 ± 0.05a.

For COC(=O)c1ccccc1OC [methyl-2-methoxybenzoate], the “Mean (±SE) numbers of alfalfa looper moths captured” value [6] was 0.1 ± 0.0a, the “Mean (±SE) numbers of cabbage looper moths captured” value [7] was 0.6 ± 0.2b and the “Mean (±SE) numbers of corn earworm moths captured” value [8] was 3.90 ± 1.69b.

With O=CCc1ccccc1 [phenylacetaldehyde] the “Mean (±SE) numbers of alfalfa looper moths captured” value [6] was 4.5 ± 0.5c, the “Mean (±SE) numbers of cabbage looper moths captured” value [7] was 7.2 ± 1.0c and the “Mean (±SE) numbers of alfalfa looper moths captured” value [4] was 0.83 ± 0.21e. For the same compound, the “Mean (±SE) numbers of corn earworm moths captured” value [1] was 0.45 ± 0.22b, the “Mean (±SE) numbers of corn earworm moths captured” value [8] was 2.35 ± 0.62b and the “Mean (±SE) numbers of corn earworm moths captured” value [5] was 2.25 ± 0.35c. The “Mean (±SE) numbers of corn earworm moths captured” value [2] was 1.75 ± 0.43c, the “Attraction of alfalfa looper moths” value [3] was “attracted” and the “Attraction of corn earworm moths” value [9] was “attract”.

For CC1=CC[C@@H]2C[C@H]1C2(C)C [α-pinene, (R)-(+)-α-pinene], the “Mean (±SE) numbers of alfalfa looper moths captured” value [6] was 0.0 ± 0.0a, the “Mean (±SE) numbers of cabbage looper moths captured” value [7] was 0.1 ± 0.0a and the “Mean (±SE) numbers of corn earworm moths captured” value [8] was 0.08 ± 0.04a.

With C=CC(=C)CCC=C(C)C [β-myrcene] the “Mean (±SE) numbers of alfalfa looper moths captured” value [6] was 0.4 ± 0.1b, the “Mean (±SE) numbers of cabbage looper moths captured” value [7] was 0.1 ± 0.1a and the “Mean (±SE) numbers of corn earworm moths captured” value [8] was 0.20 ± 0.10a.

In the case of C=C1CC[C@H]2C[C@@H]1C2(C)C [β-pinene, (S)-(−)-β-pinene], the “Mean (±SE) numbers of alfalfa looper moths captured” value [6] is reported as 0.0 ± 0.0a, the “Mean (±SE) numbers of cabbage looper moths captured” value [7] is reported as 0.0 ± 0.0a and the “Mean (±SE) numbers of corn earworm moths captured” value [8] is reported as 0.03 ± 0.03a.
